Reference: patent US12234223B2, “Phthalazinone compound, and preparation method therefor and medical use thereof” (SHANGHAI JEMINCARE PHARMACEUTICALS CO., LTD, priority 2020, dated 2025)

Molecular target: T1, Androgen receptor (Homo sapiens, UniProt P10275)
T1 construct: Dmax: a maximum degradation degree of AR in VCaP cells; endogenous in cells; host or cells: VCaP cells
T1 sequence (P10275 1-920): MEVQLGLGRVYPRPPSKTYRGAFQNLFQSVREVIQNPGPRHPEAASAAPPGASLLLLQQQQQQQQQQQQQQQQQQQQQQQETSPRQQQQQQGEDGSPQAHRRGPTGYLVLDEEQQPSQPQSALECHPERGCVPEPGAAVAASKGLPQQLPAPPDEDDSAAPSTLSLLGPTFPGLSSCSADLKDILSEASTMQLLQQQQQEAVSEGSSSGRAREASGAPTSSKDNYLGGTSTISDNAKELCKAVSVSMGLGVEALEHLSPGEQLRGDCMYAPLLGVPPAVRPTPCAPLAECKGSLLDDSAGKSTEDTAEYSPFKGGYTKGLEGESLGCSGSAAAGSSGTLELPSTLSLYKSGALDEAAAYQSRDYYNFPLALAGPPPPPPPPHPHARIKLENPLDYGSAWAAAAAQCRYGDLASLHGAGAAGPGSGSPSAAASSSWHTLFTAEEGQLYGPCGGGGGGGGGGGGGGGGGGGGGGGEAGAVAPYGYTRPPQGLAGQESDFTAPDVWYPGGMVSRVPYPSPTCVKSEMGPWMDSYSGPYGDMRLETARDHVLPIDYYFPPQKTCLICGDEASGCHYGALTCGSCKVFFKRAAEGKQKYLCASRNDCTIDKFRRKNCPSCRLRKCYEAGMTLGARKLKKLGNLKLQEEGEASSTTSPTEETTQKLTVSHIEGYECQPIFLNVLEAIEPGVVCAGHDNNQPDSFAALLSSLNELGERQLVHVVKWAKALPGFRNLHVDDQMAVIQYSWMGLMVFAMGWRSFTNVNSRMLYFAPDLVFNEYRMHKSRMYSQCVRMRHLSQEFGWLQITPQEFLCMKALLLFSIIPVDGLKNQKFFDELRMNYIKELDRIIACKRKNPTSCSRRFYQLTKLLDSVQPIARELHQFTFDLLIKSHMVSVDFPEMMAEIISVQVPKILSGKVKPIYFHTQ
Assay: Androgen receptor In-Cell-Western assay (AR degradation in VCaP cells)
Type: cell-based
Settings: 24 hours treatment; for DC50: concentration for half the maximum degradation degree of AR in VCaP cells; for Dmax: maximum degradation degree of AR in VCaP cells
Description: This assay evaluated compound performance in VCap cells. An intracellular androgen receptor was assayed by In-Cell-Western according to the assay procedure described below.
In a 96-well cell culture plate (Corning 3599) pretreated by poly-D-Lysin, Vcap cells were seeded to a Vcap cell assay medium [phenol red containing DMEM (Gibco Cat. No.: 11995065); fetal bovine serum FBS (Gibco Cat. No.: 10099141C)] at a volume of 100 μL/well and a cell density of 50,000 cells/well. Cells were cultured for at least two days. • 1. First, cells were treated with a compound. The compound was subjected to a gradient dilution by using DMSO and a cell culture medium, so that DMSO contained in the cell culture plate was diluted to 0.5%: a polypropylene plate was used according to the following protocol: • (1) (i) A 200× stock solution plate was prepared in DMSO; (ii) a 10 mM stock solution was diluted at 1:4 (10 μL stock solution+40 μL DMSO=2000 uM) with DMSO to enter row 2; (iii) a 1:4 (10 μL protac+40 μL DMSO) gradient dilution was performed from row 2 to row 9, row 1 was reserved for a 2000 uM reference compound and row 10 was reserved for DMSO. (iv) There were 8 concentrations (the final concentrations on the 200× plate was 2000 uM, 400 uM, 80 uM, etc.) in total. (2) (i) A 3× stock solution was prepared in the medium; (ii) 3 μL of the 200× stock solution was transferred to 197 μL of the medium (by a 12-channel pipette, from row 1 to row 10), i.e. a 3× stock solution plate. (iii) Uniform mixing was performed for the stock solution plate. (3) (i) The medium of Vcap cells was replaced with a fresh medium, with the medium volume of 100 μL. (ii) The uniformly-mixed 3× stock solution was transferred to the cell culture plate (by the 12-channel pipette, 50 μL of the stock solution was transferred from row 1 to row 10). (iii) The cells were cultured for 24 hours. • 2. The expression level of the intracellular androgen receptor after compound treatment was detected, and assay was performed according to the following method. • (1) (i) An equal volume of 8% paraformaldehyde was added to the cell culture plate for cell fixation. A fixative solution in the cell plate was discarded, and the cell plate was washed three times with PBS. (ii) A Triton solution was prepared (the stock solution was diluted at 1:1000). The solution in the cell plate was discarded, and a volume of 200 μL of a Triton diluent was added to each well. (iii) A 2× blocking solution was prepared (a 10× blocking stock solution was diluted at 1:4). The solution in the cell plate was discarded, and a volume of 100 μL of the 2× blocking solution was added to each well. (iv) A primary antibody solution (Androgen receptor Rabbit mAb, Cell Signaling Technology Cat. No.: 5153; 1:1000 dilution) was prepared. The solution in the cell plate was discarded, a volume of 100 μL of a primary antibody diluent was added to each well, and incubation was performed at 4 degrees overnight. (v) The primary antibody solution was discarded, and the cell plate was washed with 1× Wash buffer (Wash buffer in the present application means a washing buffer solution). (vi) A secondary antibody solution (Goat anti Rabbit IgG (H+L) Secondary Antibody, HRP, Thermo Cat. No.: 31460; 1:5000 dilution) was prepared, and a volume of 100 μL of a secondary antibody diluent was added to each well for incubation. (vii) The secondary antibody solution in the cell plate was discarded, and the cell plate was washed with 1× Wash buffer. (viii) A TMB chromogenic solution (BD Cat. No.: 550534) was prepared, and a volume of 100 μL of the chromogenic solution was added to each well. (ix) A volume of 50 μL of a stop solution (BD Cat. No.: 550534) was added to each well. (x) Absorption values at OD 450 nm and 570 nm were read by EnVision. (2) (i) Normalized analysis was performed for the number of cells in each well. The solution in the cell plate was discarded, and the cell plate was washed three times with wash buffer. […]

| SMILES | DC50 | Dmax |
| --- | --- | --- |
| CC1(C)[C@H](NC(=O)c2ccc(N3CCC(CN4CCN(c5ccc6c(=O)n(C7CCC(=O)NC7=O)nc(F)c6c5)CC4)CC3)cc2)C(C)(C)[C@H]1Oc1ccc(C#N)c(Cl)c1 (stereo partly drawn) [Compound 29] | 8.9 nM | 169% |
| CC1(C)[C@H](NC(=O)c2ccc(N3CCC(CN4CCN(c5ccc6c(=O)n(C7CCC(=O)NC7=O)ncc6c5)CC4)CC3)cc2)C(C)(C)[C@H]1Oc1ccc(C#N)c(Cl)c1 (stereo partly drawn) [Compound 1] | 10 nM | 97% |
| CC1(C)[C@H](NC(=O)c2ccc(N3CCC(CN4CCN(c5ccc6c(=O)n([C@H]7CCC(=O)NC7=O)ncc6c5)CC4)CC3)cc2)C(C)(C)[C@H]1Oc1ccc(C#N)c(Cl)c1 [Compound 28A] | 2.7 nM | 126% |
